Columns and labels:
IDO1 [1] = molecular target: T1, IDO1 (Homo sapiens, UniProt P14902); assay: IDO1 Human Whole Blood Assay; assay type: cell-based; set-up: Human whole blood was drawn in sodium heparin coated tubes from healthy internal donors; from tissue; host or cells: human whole blood from healthy donors, stimulated with LPS and IFNγ; conditions: LPS and IFNγ stimulated
IDO1 [2] = molecular target: T1, IDO1; assay: IDO1 Cellular Assay in HeLa Cells Stimulated with IFNγ; assay type: cell-based; conditions: read-out: Hela IC50

T1 sequence (P14902 whole entry): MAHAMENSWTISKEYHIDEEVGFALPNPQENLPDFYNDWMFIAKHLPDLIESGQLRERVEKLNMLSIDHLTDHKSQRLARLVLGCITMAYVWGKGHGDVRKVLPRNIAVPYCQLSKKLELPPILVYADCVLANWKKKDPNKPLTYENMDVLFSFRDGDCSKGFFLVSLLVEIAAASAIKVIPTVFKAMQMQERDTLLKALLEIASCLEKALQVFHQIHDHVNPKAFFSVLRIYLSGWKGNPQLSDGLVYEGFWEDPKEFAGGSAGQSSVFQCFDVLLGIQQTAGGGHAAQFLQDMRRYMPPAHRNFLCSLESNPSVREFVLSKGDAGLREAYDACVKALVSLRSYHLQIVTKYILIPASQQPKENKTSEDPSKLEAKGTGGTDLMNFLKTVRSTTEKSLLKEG

| Compound | IC50 (IDO1 [1]) [nM] | IC50 (IDO1 [2]; about 48 hours) [nM] | IC50 (IDO1 [2]) [nM] |
| --- | --- | --- | --- |
| CC(NC(=O)c1ccc(Cl)cc1)c1ccc2c(n1)CCCN2C(=O)C1CC1 (single isomer, unassigned) [Example 125, 4-chloro-N-{1-[5-(cyclopropanecarbonyl)-5,6,7,8-tetrahydro-1,5-naphthyridin-2-yl]ethyl}benzamide] | 289 | 8.3 |  |
| Cc1nccc(N2CCCc3nc(C(C)(C)C(=O)Nc4ccc(Cl)cc4)ccc32)n1 [Example 390, N-(4-chlorophenyl)-2-methyl-2-(5-(2-methylpyrimidin-4-yl)-5,6,7,8-tetrahydro-1,5-naphthyridin-2-yl)propanamide] | 73 | 2.42 |  |
| C[C@H](C(=O)Nc1ccc(F)cc1)c1ccc2c(c1)CCCN2C(=O)[C@H]1CCCCO1 (single isomer, unassigned) [Example 87] | 22 | 2.1 |  |
| Cc1nccc(N2CCCc3nc(C4(NC(=O)c5ccc(F)c(Br)c5)CC4)ccc32)n1 [Example 304, 3-bromo-4-fluoro-N-(1-(5-(2-methylpyrimidin-4-yl)-5,6,7,8-tetrahydro-1,5-naphthyridin-2-yl)cyclopropyl)benzamide] | 81 | 2.79 |  |
| CC(NC(=O)c1ccc(F)cc1)c1ccc2c(n1)CCCN2C(=O)OCC(F)F (stereo not drawn) [Example 309, 2,2-difluoroethyl 6-(1-(4-fluorobenzamido)ethyl)-3,4-dihydro-1,5-naphthyridine-1(2H)-carboxylate] | 78 |  | 24.6 |
| CC(C(=O)Nc1ccc(F)cc1)c1ccc2c(c1)CCCN2C(=O)c1cnn(C)c1 (stereo not drawn) [Example 48, N-(4-fluorophenyl)-2-[1-(1-methyl-1H-pyrazole-4-carbonyl)-1,2,3,4-tetrahydroquinolin-6-yl]propanamide] | 321 | 15.8 |  |
| O=C(N[C@H](c1ccc2c(n1)CCCN2C(=O)C1CC1)C(F)(F)F)c1ccc(F)cc1 [Example 424, (R)—N-(1-(5-(cyclopropanecarbonyl)-5,6,7,8-tetrahydro-1,5-naphthyridin-2-yl)-2,2,2-trifluoroethyl)-4-fluorobenzamide] | 143 |  | 44.8 |
| O=C(OC1CC1)N1CCc2cc(C3(C(=O)Nc4ccc(Cl)cc4)CCC3)ccc21 [Example 273, cyclopropyl 5-{1-[(4-chlorophenyl)carbamoyl]cyclobutyl}-2,3-dihydro-1H-indole-1-carboxylate] | 90 | 2 |  |
| Cc1cncc(N2CCCc3nc(C4(NC(=O)c5ccc(F)cc5)CC4)ccc32)n1 [Example 296, 4-fluoro-N-(1-(5-(6-methylpyrazin-2-yl)-5,6,7,8-tetrahydro-1,5-naphthyridin-2-yl)cyclopropyl)benzamide] | 163 | 1.51 |  |
| COCCOC(=O)N1CCCc2nc(C(C)NC(=O)c3ccc(Cl)cc3)ccc21 (stereo not drawn) [Example 212, 2-methoxyethyl 6-{1-[(4-chlorobenzene-1-carbonyl)amino]ethyl}-3,4-dihydro-1,5-naphthyridine-1(2H)-carboxylate] | 35 | 3 |  |
| Cc1nccc(N2CCCc3nc(C4(C(=O)Nc5ccc(F)cc5)CC5(CC5)C4)ccc32)n1 [Example 415, 2-(5-((4-fluorophenyl)carbamoyl)spiro [2.3]hexan-5-yl)-5-(2-methylpyrimidin-4-yl)-5,6,7,8-tetrahydro-1,5-naphthyridin-1-ium 2,2,2-trifluoroacetate] | 18 |  | 3.19 |
| CC(NC(=O)c1ccc(F)cc1)c1ccc2c(n1)CCCN2C(=O)OC(C)(C)C(F)(F)F (stereo not drawn) [Example 312] | 47 |  | 9.87 |
| O=C(Nc1ccc(Cl)cc1)C1(c2ccc3c(n2)CCCN3c2cccc(C3CC3)n2)CCC1 [Example 408, N-(4-chlorophenyl)-1-(5-(6-cyclopropylpyridin-2-yl)-5,6,7,8-tetrahydro-1,5-naphthyridin-2-yl)cyclobutane-1-carboxamide] | 2980 | 11.5 |  |
| CC(NC(=O)c1ccc(Cl)cc1)c1ccc2c(n1)CCCN2c1cccc(CO)n1 (stereo not drawn) [Example 346, 4-chloro-N-(1-(5-(6-(hydroxymethyl)pyridin-2-yl)-5,6,7,8-tetrahydro-1,5-naphthyridin-2-yl)ethyl)benzamide] | 100 |  | 8.22 |
| CC(NC(=O)c1ccc(F)cc1)c1ccc2c(c1)CCCN2C(CO)c1cccc(Cl)c1 (single isomer, unassigned) [Example 93] | 450 | 5.7 |  |
| Cc1cccc(N2CCCc3nc(C4(C(=O)Nc5ccc(Cl)cc5)CCC4)ccc32)n1 [Example 404, N-(4-chlorophenyl)-1-(5-(6-methylpyridin-2-yl)-5,6,7,8-tetrahydro-1,5-naphthyridin-2-yl)cyclobutane-1-carboxamide] | 20 | 3.3 |  |

The next lines start with the values.

| IC50 (IDO1 [1]) [nM] | IC50 (IDO1 [2]; about 48 hours) [nM] | IC50 (IDO1 [2]) [nM] | Compound |
| --- | --- | --- | --- |
| 18 |  | 2.9 | COC[C@@H](C)OC(=O)N1CCCc2nc(C(C)NC(=O)c3ccc(F)cc3)ccc21 (stereo partly drawn) [Example 315, (R)-1-methoxypropan-2-yl 6-(1-(4-fluorobenzamido)ethyl)-3,4-dihydro-1,5-naphthyridine-1(2H)-carboxylate] |
| 46 |  | 1.61 | CC(NC(=O)c1ccc(Cl)cc1)c1ccc2c(n1)CCCN2C(=O)OCC(F)(F)F (stereo not drawn) [Example 310] |
| 125 | 8 |  | C[C@@H](NC(=O)c1ccc(F)cc1)c1ccc2c(n1)CCCN2C(=O)[C@H]1CCCO1 [Example 145, 4-fluoro-N-[(1R)-1-{5-[(2R)-oxolane-2-carbonyl]-5,6,7,8-tetrahydro-1,5-naphthyridin-2-yl}ethyl]benzamide] |
| 1000 |  | 71 | Cc1nccc(N2CCCc3nc(C4(C(=O)Nc5ccc(F)cc5)CC(O)C4)ccc32)n1 (stereo not drawn) [Example 426, 2-(1-((4-fluorophenyl)carbamoyl)-3-hydroxycyclobutyl)-5-(2-methylpyrimidin-4-yl)-5,6,7,8-tetrahydro-1,5-naphthyridin-1-ium 2,2,2-trifluoroacetate] |
| 336 | 1.9 |  | O=C(Nc1ccc(Cl)cc1)C1(c2ccc3c(n2)CCN3c2ccccn2)CCC1 [Example 272, N-(4-chlorophenyl)-1-[1-(pyridin-2-yl)-2,3-dihydro-1H-pyrrolo[3,2-b]pyridin-5-yl]cyclobutane-1-carboxamide] |
| 480 | 20 |  | O=C(C1COC1)N1CCCc2cc(C3(C(=O)Nc4ccc(F)cc4)CCC3)ccc21 [Example 115, N-(4-fluorophenyl)-1-[1-(oxetane-3-carbonyl)-1,2,3,4-tetrahydroquinolin-6-yl]cyclobutane-1-carboxamide] |
| 27 | 1.82 |  | O=C(Nc1ccc(Cl)cc1)C1(c2ccc3c(n2)CCCN3c2ccnc(C(F)(F)F)n2)COC1 [Example 396, N-(4-chlorophenyl)-3-(5-(2-(trifluoromethyl)pyrimidin-4-yl)-5,6,7,8-tetrahydro-1,5-naphthyridin-2-yl)oxetane-3-carboxamide] |
| 26 | 1.23 |  | Cc1nccc(N2CCCc3nc(C4(C(=O)Nc5ccc(F)cc5)COC4)ccc32)n1 [Example 395, N-(4-fluorophenyl)-3-(5-(2-methylpyrimidin-4-yl)-5,6,7,8-tetrahydro-1,5-naphthyridin-2-yl)oxetane-3-carboxamide] |
| 115 | 3.5 |  | CC1(C(=O)N2CCCc3cc(C4(C(=O)Nc5ccc(F)cc5)CCC4)ccc32)CC1 [Example 104, N-(4-fluorophenyl)-1-[1-(1-methylcyclopropane-1-carbonyl)-1,2,3,4-tetrahydroquinolin-6-yl]cyclobutane-1-carboxamide] |
| 167 |  | 13 | Cc1ncc(N2CCCc3nc(C(C)NC(=O)c4ccc(Cl)cc4)ccc32)s1 (stereo not drawn) [Example 356, 4-chloro-N-(1-(5-(2-methylthiazol-5-yl)-5,6,7,8-tetrahydro-1,5-naphthyridin-2-yl)ethyl)benzamide] |
| 63 | 0.89 |  | O=C(NC1(c2ccc3c(n2)CCCN3c2ccnc(C3CC3)n2)CC1)c1ccc(F)cc1 [Example 307, 5-(2-cyclopropylpyrimidin-4-yl)-2-(1-(4-fluorobenzamido)cyclopropyl)-5,6,7,8-tetrahydro-1,5-naphthyridin-1-ium 2,2,2-trifluoroacetate] |
| 106 | 2.15 |  | Cc1ccc(C(=O)NC2(c3ccc4c(n3)CCCN4c3ccnc(C)n3)CC2)cc1 [Example 303, 4-methyl-N-(1-(5-(2-methylpyrimidin-4-yl)-5,6,7,8-tetrahydro-1,5-naphthyridin-2-yl)cyclopropyl)benzamide] |
| 58 |  | 453 | CC(NC(=O)c1ccc(F)cc1)c1ccc2c(n1)CCCN2C(=O)OCCCc1ccncc1 (stereo not drawn) [Example 322, 3-(pyridin-4-yl)propyl 6-(1-(4-fluorobenzamido)ethyl)-3,4-dihydro-1,5-naphthyridine-1(2H)-carboxylate] |
| 63 | 1.9 |  | Cc1nccc(N2CCCc3nc(C4(NC(=O)c5ccc(Cl)nc5)CC4)ccc32)n1 [Example 300, 6-chloro-N-(1-(5-(2-methylpyrimidin-4-yl)-5,6,7,8-tetrahydro-1,5-naphthyridin-2-yl)cyclopropyl)nicotinamide] |
| 150 | 4.1 |  | CC(C(=O)Nc1ccc(F)cc1)c1ccc2c(c1)CCCN2C(=O)C1CC1(F)F (stereo not drawn) [Example 67, 2-[1-(2,2-difluorocyclopropane-1-carbonyl)-1,2,3,4-tetrahydroquinolin-6-yl]-N-(4-fluorophenyl)propanamide] |
| 1690 |  | 69.2 | Cc1cc(C)n(COC(=O)N2CCCc3nc(C(C)NC(=O)c4ccc(F)cc4)ccc32)n1 (stereo not drawn) [Example 320, (3,5-dimethyl-1H-pyrazol-1-yl)methyl 6-(1-(4-fluorobenzamido)ethyl)-3,4-dihydro-1,5-naphthyridine-1(2H)-carboxylate] |
| 33 | 3.8 |  | CC(C)CC(=O)N1CCCc2cc([C@@H](C)NC(=O)c3ccc(Cl)cc3)ccc21 (racemic) [Example 28, 4-chloro-N-{(1R)-1-[1-(3-methyl-butanoyl)-1,2,3,4-tetrahydroquinolin-6-yl]ethyl}benzamide] |

Source: patent US12275729B2 (Merck Sharp & Dohme LLC, priority 2017, dated 2025)
